# In ChEMBL document CHEMBL1122038, “Peptide sweeteners. 5. Side-chain homologues relating zwitterionic and trifluoroacetylated amino acid anilide and dipeptide sweeteners” (J Med Chem, 1982):
# Structures can show the parent of a compound that is named as a salt. Peptide text beside a SMILES is read from it. * marks the point of attachment. Tfa = O=C(C(F)(F)F)*
# Test: Compound was evaluated for the potency of sweet taste when sweetness of sucrose is taken as 1 on a weight basis; 15-30
row,Compound,Taste
1,N#Cc1ccc(NC(=O)C(N)CC(=O)O)cc1 (centres undefined),15
2,N#Cc1ccc(NC(=O)C(N)CCC(=O)O)cc1 (centres undefined),15

# Test: Compound was evaluated for the potency of sweet taste when sweetness of sucrose is taken as 1 on a weight basis; 150-200
row,Compound,Taste
1,COC(=O)C(Cc1ccccc1)NC(=O)C(CC(=O)O)NC(=O)C(F)(F)F (stereo not drawn) (Tfa-Asp-Phe-OMe; configuration not given here),150
2,COC(=O)[C@H](Cc1ccccc1)NC(=O)C(N)C(=O)O (some centres undefined),150
3,COC(=O)[C@H](Cc1ccccc1)NC(=O)[C@@H](N)CC(=O)O,150

# Test: Compound was evaluated for the potency of sweet taste when sweetness of sucrose is taken as 1 on a weight basis; 2500-3000
row,Compound,Taste
1,N#Cc1ccc(NC(=O)[C@H](CC(=O)O)NC(=O)C(F)(F)F)cc1,2500
2,N#Cc1ccc(NC(=O)C(CCC(=O)O)NC(=O)C(F)(F)F)cc1 (centres undefined),2500

# Test: Compound was evaluated for the potency of sweet taste when sweetness of sucrose is taken as 1 on a weight basis; Not sweet
# Type: functional
row,Compound,Taste
1,COC(=O)[C@H](Cc1ccccc1)NC(=O)[C@@H](N)CCC(=O)O,0
2,N#Cc1ccc(NC(=O)C[C@@H](NC(=O)C(F)(F)F)C(=O)O)cc1,0
3,COC(=O)C(Cc1ccccc1)NC(=O)C(NC(=O)C(F)(F)F)C(=O)O (centres undefined),0
4,N#Cc1ccc(NC(=O)C(CC(=O)O)NC(=O)C(F)(F)F)cc1 (centres undefined),0
5,N#Cc1ccc(NC(=O)CCC(NC(=O)C(F)(F)F)C(=O)O)cc1 (stereo in doubt; 9),0
6,N#Cc1ccc(NC(=O)CCC(NC(=O)C(F)(F)F)C(=O)O)cc1 (stereo in doubt; 11),0
7,N#Cc1ccc(NC(=O)C(CCC(=O)O)NC(=O)C(F)(F)F)cc1 (centres undefined),0
8,N#Cc1ccc(NC(=O)CC(NC(=O)C(F)(F)F)C(=O)O)cc1 (centres undefined),0
9,N#Cc1ccc(NC(=O)C(NC(=O)C(F)(F)F)C(=O)O)cc1 (centres undefined),0
10,COC(=O)C(Cc1ccccc1)NC(=O)C(CCC(=O)O)NC(=O)C(F)(F)F (centres undefined),0
11,N#Cc1ccc(NC(=O)C(CCCC(=O)O)NC(=O)C(F)(F)F)cc1 (centres undefined),0
12,N#Cc1ccc(NC(=O)C(N)C(=O)O)cc1 (centres undefined),0
